Results on 4 molecules are retold here after patent US6896895B2, “Carotenoid esters, carotenoid-enriched feeds, and methods of pigmenting foods and foodstuffs” (DSM IP Assets B.V., priority 2000, dated 2005).

Each structure is given as a SMILES string.

For one series, the system named is egg yolk. Description: Egg yolk colour: reflectance colorimetry and Roche Yolk Colour Fan. It counts as in vivo, laying hens (ISA Brown). The following applies: egg yolk, laying hens. The protocol: (§1) Pigmentation efficacy was assessed in egg yolk, in the back skin of the broiler carcass, and in broiler shanks by reflectance colorimetry accompanied by visual scoring (Roche Colour Fan). The deposition of the ethyl-β-apo-8′-carotenoate (control) and the other carotenoid esters was determined in egg yolk and in the broiler back skin. In addition, the carotenoid levels in plasma and abdominal fat were measured.
The trials were carried out following the standard experimental design used for egg yolk pigmentation trials at the Roche Research Center for Animal Nutrition (CRNA, F-68305 Village-Neuf, France). Each year in February the pigmentation trials are started with a new flock of layers. At the beginning of the trials the age of the laying hens (192 birds, type ‘ISA Brown’) were as follows:
Preceding the trials the hens were fed a low carotenoid basal diet (produced at the CRNA) without carotenoid supplementation for at least 28 days. During the trials, the control group received the low carotenoid basal diet containing less than 2 mg total xanthophylls per kg of feed. The other animals were fed this diet supplemented with the appropriate pigments for three weeks. The diet was given to the animals ad libitum in mash form. The hens had free access to tap water. Beside the unsupplemented control treatment, treatments were carried out involving the provision of supplemented feed, the results of these treatments being presented in Tables 7-9.
Egg yolk color was assessed as described by Steinberg, et al. (Arch. Geflügelk 64 (4), 180-187 (2000)). The yolks were manually separated from the whites of the eggs. The isolated yolks of three to six eggs were combined, weighed, and stirred with a glass rod until the color appeared homogeneous. The color hue was visually scored using the Roche Yolk Colour Fan (RYCF, version 1993). An aliquot of the pooled egg yolks was transferred into a glass cuvette yielding an approximately 2 cm thick layer. The color was then measured by means of a Dr. Lange Xeno Color LS 100 spectro-colorimeter with diffuse D65-illumination and a 8° viewing angle.
(§2) The color data were expressed as CIE L*a*b*-values including h*(hue) and C* (chroma). The values given in the tables per treatment and trial represent averages of color measurements of four egg yolk pools, ten broiler back skins, or ten broiler shanks (5 males and 5 females).

In series [1] the test system is skin and shanks of broilers. Description: Reflectance colorimetry and visual classification of skin and shanks of broilers. Also noted: key to Shanks Visual Classification / Skin Visual Classification: −; (+); +; ++ = good color; o = orange. It counts as in vivo, broiler chickens (Ross 308, Ross 508). The following applies: dry carcasses, average over doses, Table 6. On the procedure:
as §1
(§3) The trials were carried out using chickens of the type Ross 308 (trials MC-24/98 and MC-02/99) and Ross 508 (trials MC-11/99, MC-16/99, MC-24/99, and MC-03/00) (Couvir de la Bohardière, F-49290 Saint Laurent de la Plaine). One-day old broiler chickens, separated by sex, were divided by weight into experimental groups of ten animals each and reared in floor pens littered with wood shavings. The chickens were fed a low carotenoid basal grower diet until day 22 (trials MC-24/98, MC-02/99, and MC-11/99) or until day 15 (trials MC-16/99, MC-24/99, and MC-03/00). The low carotenoid basal grower diet contained less than 2 mg total xanthophylls per kg of feed, and its composition is described in Table 2. For the subsequent experimental period of three weeks, the birds received the basal diet supplemented with an appropriate pigment. The feed was given in the form of crumbled pellets during the first week and as pellets thereafter. The animals had unrestricted access to feed and water. A given treatment involved one group of male and one group of female chickens. Each group of chickens was weighed at day 22 (trials MC-24/98, MC-02/99, and MC-11/99) or day 15 (trials MC-16/99, MC-24/99, and MC-03/00) and on day 43. On day 42, five chickens per group were selected at random, labelled, and blood samples were taken from the jugular vein. At the end of the experiment (day 44) the animals were slaughtered in a commercial slaughterhouse (Freyburger, Dannemarie, France). The following day, the color of the skin (hind back of carcasses) and the shanks of the labelled chicken were measured by reflectance colorimetry (Minolta CR 200 apparatus, CIE-Lab system). Samples of the dorsal skin and abdominal fat were obtained, pooled for each experimental group, and the carotenoid concentration was determined. The concentration of carotenoids in feed, plasma, skin, and abdominal fat was determined by standard procedures as described after Tables 1 and 2.
The color of broiler skin and shanks was measured using a tristimulus Minolta CR-300 Chromameter with diffuse D65-illumination and a 0° viewing angle. The color of the skin was read at three different points on the back of the dry broiler carcasses and average values of the triple measurements were recorded. The color of shanks was measured using single measurements at the ball between the toes.
as §2

Series [2] is described as follows: Carotenoid ester content in plasma, back skin and abdominal fat of broilers (HPLC). It counts as in vivo, broiler chickens (Ross 308, Ross 508). The following applies: average over doses, Table 4. The protocol:
as §1, §3
The content of the various carotenoid esters in feed was determined according to the method of Schierle, et al. (J. Schierle , N. Faccin, V. Riegert, Analytical Methods for Vitamins and Carotenoids in Feed, Revised supplement: Determination of Stabilized Apocarotenoic Ester and Canthaxanthin in Premixes and Feeds, Roche publication no. 50771 (1995), publicly available from. F. Hoffmann-La Roche Ltd., CH-4070 Basel). This method was modified in that the mobile phase of the normal-phase HPLC contained 0.5% instead of 7% acetone in n-hexane, improving the separation of the E/Z-isomers of the carotenoid esters. Peaks were related to all-E- and Z-isomers of the various carotenoid esters by chromatography of heat-isomerized solutions of the respective reference substances in n-hexane. The HPLC system was calibrated with the all-E-isomer of ethyl β-apo-8′-carotenoate. The response factor of the various derivatives was deduced from that of ethyl β-apo-8′-carotenoate taking into account the respective molecular weight. The content of the Z-isomer fractions was calculated based on the response of the all-E-isomer and using a correction factor of 1.4 to account for the lower specific absorbance of the Z-isomers.
(§4) The HPLC-system for in-feed analysis was also used to quantify the carotenoid esters in egg yolk, broiler tissues, and broiler plasma, but the extraction procedure was different for the various matrices.
For plasma extraction, 1.0 g of the well-mixed plasma sample was introduced into a 10 ml test tube with 1.0 ml of demineralized water and 4.0 ml of ethanol, and the contents mixed on a Vortex shaker. […]

The nature of series [3]: Carotenoid ester content and deposition rate in egg yolk of laying hens (HPLC). Format: in vivo, laying hens (ISA Brown). Conditions: egg yolk; for Deposition Rate % of Controls: Table 10. On the procedure:
as §1
Each year in February the pigmentation trials are started with a new flock of layers.
Preceding the trials the hens were fed a low carotenoid basal diet (produced at the CRNA) without carotenoid supplementation for at least 28 days. During the trials, the control group received the low carotenoid basal diet containing less than 2 mg total xanthophylls per kg of feed. The other animals were fed this diet supplemented with the appropriate pigments for three weeks. The diet was given to the animals ad libitum in mash form. The hens had free access to tap water.
Peaks were related to all-E- and Z-isomers of the various carotenoid esters by chromatography of heat-isomerized solutions of the respective reference substances in n-hexane. The HPLC system was calibrated with the all-E-isomer of ethyl β-apo-8′-carotenoate. The response factor of the various derivatives was deduced from that of ethyl β-apo-8′-carotenoate taking into account the respective molecular weight. The content of the Z-isomer fractions was calculated based on the response of the all-E-isomer and using a correction factor of 1.4 to account for the lower specific absorbance of the Z-isomers.
as §4
For the extraction of egg yolk, 10 g of pooled and homogenised yolk were mixed with 10 ml of demineralized water using a dispersion instrument (Polytron). 1.0 g of diluted egg yolk was introduced into a 10 ml test tube with 1.0 ml of demineralized water and 2.0 ml of ethanol, and the contents were mixed on a Vortex shaker. After addition of 4.0 ml of n-hexane, the mixture was further treated as described for plasma.

Setting [4] is: trial H-25/99, 5.0 mg/kg feed, Table 8.
[5] abbreviates: trial H-25/99, 5.0 mg/kg feed, Table 10.
Where [6] appears, read: trial H-18/99, 5.0 mg/kg feed, Table 8.
Setting [7] is: trial H-18/99, 5.0 mg/kg feed, Table 10.
Where [8] appears, read: control, n = 16, 1.0-8.0 mg/kg feed.

On to `CCC(CC)COC(=O)C(C)=CC=CC(C)=CC=CC=C(C)C=CC=C(C)C=CC1=C(C)CCCC1(C)C` [(9), 2-ethyl-1-butyl beta-apo-8′-carotenoate], for which the “Color Fan Value % of Controls” value in the series on egg yolk (setting [4]) is recorded as 101%. Besides, in the series on egg yolk (setting [5]), the “Chroma C*ab % of Controls” value amounted to 99%, the “Color Fan Value % of Controls” value is 101% and the “Color Hue h*ab % of Controls” value is recorded as 92%. Also, in series [1], the “Shanks Chroma C*ab % of Controls” value is on record as 92%, the “Shanks Color Hue h*ab % of Controls” value came out at 101%, the “Shanks Visual Classification” value is listed as “(+)” and the “Skin Chroma C*ab % of Controls” value came to 82%. Also, in series [1], the “Skin Color Hue h*ab % of Controls” value was 101% and the “Skin Visual Classification” value was “+”. Further, in series [2], the “Analytical Content as Equivalent of Ethyl β-apo-8′-carotenoate in % of control Fat” value (“Analytical Content … in % of control Fat” for short) was 45%, the “Analytical Content as Equivalent of Ethyl β-apo-8′-carotenoate in % of control Plasma” value (“Analytical Content … in % of control Plasma” for short) is given as 59% and the “Analytical Content as Equivalent of Ethyl β-apo-8′-carotenoate in % of control Skin” value (“Analytical Content … in % of control Skin” below) was 55%. In series [3] (setting [4]), the “Deposition Rate Target Values % of Controls” value is listed as 87% and the “Ethyl β-apo-8′-carotenoate Equivalents % of Controls” value was determined as 77%. In series [3] (trial H-25/99, 5.0 mg/kg feed), the “Deposition Rate % of Controls” value came out at 87%.

Regarding `COC(=O)C(C)=CC=CC(C)=CC=CC=C(C)C=CC=C(C)C=CC1=C(C)CCCC1(C)C` [(1), methyl beta-apo-8′-carotenoate], in the series on egg yolk (setting [6]), the “Color Fan Value % of Controls” value is listed as 130%. Moreover, in the series with egg yolk (setting [7]), the “Chroma C*ab % of Controls” value is reported as 104%, the “Color Fan Value % of Controls” value worked out at 130% and the “Color Hue h*ab % of Controls” value was found to be 99%. In series [1], the “Shanks Chroma C*ab % of Controls” value came to 97%, the “Shanks Color Hue h*ab % of Controls” value was 101%, the “Shanks Visual Classification” value is “(+)” and the “Skin Chroma C*ab % of Controls” value was 97%. In series [1], the “Skin Color Hue h*ab % of Controls” value is on record as 100% and the “Skin Visual Classification” value is “(+)”. For the same molecule, in series [2], the “Analytical Content … in % of control Fat” value is recorded as 85%, the “Analytical Content … in % of control Plasma” value is given as 88% and the “Analytical Content … in % of control Skin” value amounted to 87%. In series [3] (setting [6]), the “Deposition Rate Target Values % of Controls” value was found to be 99% and the “Ethyl β-apo-8′-carotenoate Equivalents % of Controls” value is 95%. The “Deposition Rate % of Controls” value in series [3] (trial H-18/99, 5.0 mg/kg feed) is given as 99%.

Take `CC(C=CC=C(C)C=CC1=C(C)CCCC1(C)C)=CC=CC=C(C)C=CC=C(C)C(=O)OC(C)CC(C)C` (stereo not drawn) [(12), 4-methyl-2-pentyl beta-apo-8′-carotenoate]: the “Color Fan Value % of Controls” value with egg yolk (setting [4]) was found to be 101%. For the same molecule, in the series on egg yolk (setting [5]), the “Chroma C*ab % of Controls” value is given as 74%, the “Color Fan Value % of Controls” value came to 101% and the “Color Hue h*ab % of Controls” value came to 109%. For the same molecule, in series [1], the “Shanks Chroma C*ab % of Controls” value is listed as 95%, the “Shanks Color Hue h*ab % of Controls” value turned out to be 101%, the “Shanks Visual Classification” value is recorded as “+” and the “Skin Chroma C*ab % of Controls” value is on record as 91%. In addition, in series [1], the “Skin Color Hue h*ab % of Controls” value is given as 99% and the “Skin Visual Classification” value is reported as “+”. Besides, in series [2], the “Analytical Content … in % of control Fat” value came to 49%, the “Analytical Content … in % of control Plasma” value was found to be 66% and the “Analytical Content … in % of control Skin” value is recorded as 85%. In series [3] (setting [4]), the “Deposition Rate Target Values % of Controls” value amounted to 89% and the “Ethyl β-apo-8′-carotenoate Equivalents % of Controls” value is reported as 79%. For the same molecule, the “Deposition Rate % of Controls” value in series [3] (trial H-25/99, 5.0 mg/kg feed) stood at 89%.

Take `CCOC(=O)/C(C)=C/C=C/C(C)=C/C=C/C=C(C)/C=C/C=C(C)/C=C/C1=C(C)CCCC1(C)C` [Ethyl β-apo-8′-carotenoate, ethyl beta-apo-8′-carotenoate, reference compound]: in the series on egg yolk (setting [8]), the “Color Fan Value % of Controls” value came out at 100%. Moreover, in series [3] (setting [8]), the “Deposition Rate Target Values % of Controls” value amounted to 100% and the “Ethyl β-apo-8′-carotenoate Equivalents % of Controls” value was 100%.
